Like-named read-outs stand apart in the source and are kept apart here.
Molecular target: T1, KCNQ2/3 channels (Homo sapiens, UniProt O43525+O43526)
T1 construct: expressed in transfected cells
Assay: Fluorescence assay using a voltage sensitive dye (fluorimetry)
Type: cell-based
Conditions: for EC50: IC50 where % efficacy is negative, read-out: Fluorimetry EC50/IC50
Source text: Method I. Fluorescence Assay Using a Voltage Sensitive Dye (Fluorimetry)
These voltage-sensitive dyes are fluorescent dyes and, therefore, are forming the link between cell potential influenced by KCNQ modulation and fluorescence intensity. A KCNQ agonist leads to an opening of the channel, potassium and dye efflux, a following hyperpolarization and a reduction of the inner fluorescence intensity in a kinetic protocol. If applying an ion jump by KCl depolarization, KCNQ agonists increase the ΔF/F value. An antagonist performs vice versa, respectively.
Therefore, ‘fluorimetry EC50’ is a measure for the compound potency. The compound efficacy is mirrored by ‘fluorimetry % efficacy’ (‘% Efficacy’) and refers to the maximum response achievable by the test compound, i.e. the plateau effect. This drug's plateau effect is related to the plateau effect, which can be achieved by applying a saturated concentration of a reference compound, e.g. Retigabine (50 μM), in independent wells of the same experimental plate or series.
[…] CHO-K1 cells expressing KCNQ2/3 channels are cultivated adherently at 37° C., 5% CO2 and 95% humidity in cell culture bottles (e.g. 80 cm^2 TC flasks, Nunc) with DMEM-high glucose (Sigma Aldrich, D7777) including 10% FCS (PAN Biotech, e.g. 3302-P270521) or alternatively MEM Alpha Medium (1×, liquid, Invitrogen, #22571), 10% fetal calf serum (FCS) (Invitrogen, #10270-106, heat-inactivated) and the necessary selection antibiotics.
The cell number is determined using a CASY™ cell counter (TCC, Schärfe System). Depending on the optimal density for each individual cell line, 20,000-30,000 cells/well/100 μl are seeded onto 96-well Corning™ CellBIND™ assay plates (Flat Clear Bottom Black Polystyrene Microplates, #3340). Freshly seeded cells are then left to settle for one hour at room temperature, followed by incubation for 24 hours at 37° C., 5% CO2 and 95% humidity.
The voltage-sensitive fluorescent dye from the Membrane Potential Assay Kit (Red™ Bulk format part R8123 for FLIPR, MDS Analytical Technologies™) is prepared by dissolving the contents of one vessel Membrane Potential Assay Kit Red Component A in 200 ml of extracellular buffer (ES buffer, 120 mM NaCl, 1 mM KCl, 10 mM HEPES, 2 mM CaCl2, 2 mM MgCl2, 10 mM glucose; pH 7.4). After removal of the nutrient medium, the cells are washed once with 200 μl of ES buffer, then loaded for 45 min at room temperature in 100 μl of dye solution in the dark.
Fluorescence measurements are carried out in a BMG Labtech FLUOstar™, BMG Labtech NOVOstar™ or BMG Labtech POLARstar™ instrument (525 nm excitation, 560 nm emission, Bottom Read mode). After incubation with the dye, 50 μl of the test substances in the desired concentrations, or 50 μl of ES buffer for control purposes, are applied to the wells of the assay plate and incubated for 30 min at room temperature while being shielded from light. The fluorescence intensity of the dye is then measured for 5 min and the fluorescence value F1 of each well is thus determined at a given, constant time. 15 μl of a KCl solution are then added to each well (final concentration of potassium ions 92 mM). The change in fluorescence intensity is subsequently monitored until all the relevant values have been obtained (mainly 5-30 min). At a given time post KCl application, a fluorescence value F2 is determined, in this case at the time of the fluorescence peak.
For calculation, the fluorescence intensity F2 is corrected for the fluorescence intensity F1, and the activity (ΔF/F) of the target compound on the potassium channel is determined as follows:
In order to determine whether a substance has agonistic activity,
[formula] can be related to
[formula] of control wells.
[formula] is determined by adding to the well only the buffer solution instead of the test substance, determining the value F1K of the fluorescence intensity, adding the potassium ions as described above, and measuring a value F2K of the fluorescence intensity.

[1] = CHO-K1, plateau effect relative to saturated retigabine (50 μM) = 100%, CHO-K1 cells expressing KCNQ2/3, negative values = antagonistic, read-out: Fluorimetry % efficacy (retigabine = 100%)
[2] = CHO-K1 cells expressing KCNQ2/3

T1 sequence (O43526 whole entry): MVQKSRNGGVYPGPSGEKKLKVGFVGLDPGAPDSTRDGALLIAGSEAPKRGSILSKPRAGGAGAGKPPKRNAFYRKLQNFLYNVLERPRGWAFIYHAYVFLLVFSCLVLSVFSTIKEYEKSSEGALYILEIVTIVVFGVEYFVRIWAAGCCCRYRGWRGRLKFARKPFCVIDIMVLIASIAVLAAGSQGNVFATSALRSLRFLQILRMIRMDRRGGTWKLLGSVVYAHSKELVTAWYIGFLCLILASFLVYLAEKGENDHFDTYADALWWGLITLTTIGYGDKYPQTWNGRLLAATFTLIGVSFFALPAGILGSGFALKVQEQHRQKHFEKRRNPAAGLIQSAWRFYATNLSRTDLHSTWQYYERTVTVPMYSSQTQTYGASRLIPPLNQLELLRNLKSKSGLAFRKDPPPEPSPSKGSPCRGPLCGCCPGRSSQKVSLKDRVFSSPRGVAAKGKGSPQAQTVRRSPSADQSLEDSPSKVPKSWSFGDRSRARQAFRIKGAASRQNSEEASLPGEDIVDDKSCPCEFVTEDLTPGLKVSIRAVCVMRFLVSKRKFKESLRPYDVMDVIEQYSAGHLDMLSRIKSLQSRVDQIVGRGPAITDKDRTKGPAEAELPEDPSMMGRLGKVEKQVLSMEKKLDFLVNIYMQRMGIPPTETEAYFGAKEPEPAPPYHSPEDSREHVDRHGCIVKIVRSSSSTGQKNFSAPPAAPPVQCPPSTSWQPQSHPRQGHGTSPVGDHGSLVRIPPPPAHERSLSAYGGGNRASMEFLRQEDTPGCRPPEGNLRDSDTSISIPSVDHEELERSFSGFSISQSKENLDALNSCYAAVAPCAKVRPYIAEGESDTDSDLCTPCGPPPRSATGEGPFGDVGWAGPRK
T1 sequence (O43525 whole entry): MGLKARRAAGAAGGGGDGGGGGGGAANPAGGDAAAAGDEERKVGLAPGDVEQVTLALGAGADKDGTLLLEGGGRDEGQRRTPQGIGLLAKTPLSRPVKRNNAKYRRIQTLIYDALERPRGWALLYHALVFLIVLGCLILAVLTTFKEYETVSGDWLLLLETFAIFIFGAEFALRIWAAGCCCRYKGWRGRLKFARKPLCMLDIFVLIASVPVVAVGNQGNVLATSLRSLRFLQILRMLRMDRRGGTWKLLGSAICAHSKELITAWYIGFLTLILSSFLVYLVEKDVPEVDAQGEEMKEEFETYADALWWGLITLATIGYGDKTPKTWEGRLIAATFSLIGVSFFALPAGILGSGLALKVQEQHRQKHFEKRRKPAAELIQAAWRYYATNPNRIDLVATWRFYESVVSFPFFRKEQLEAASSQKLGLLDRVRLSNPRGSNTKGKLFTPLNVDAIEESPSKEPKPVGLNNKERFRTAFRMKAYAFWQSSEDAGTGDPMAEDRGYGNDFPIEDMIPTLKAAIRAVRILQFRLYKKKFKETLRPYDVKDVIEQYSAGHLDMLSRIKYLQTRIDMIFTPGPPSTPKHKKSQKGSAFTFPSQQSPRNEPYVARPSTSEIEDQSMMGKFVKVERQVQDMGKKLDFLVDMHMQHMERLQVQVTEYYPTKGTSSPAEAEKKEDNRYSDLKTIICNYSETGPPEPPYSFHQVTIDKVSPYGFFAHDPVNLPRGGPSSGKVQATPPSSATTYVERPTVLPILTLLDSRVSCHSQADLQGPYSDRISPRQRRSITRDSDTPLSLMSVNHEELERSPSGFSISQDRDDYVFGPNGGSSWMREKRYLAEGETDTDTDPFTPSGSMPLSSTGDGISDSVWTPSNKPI

Emax [1]	EC50 [2]	Compound	Emax (CHO-K1, read-out: Fluorimetry % efficacy (retigabine = 100%))
143%	4830 nM	CCSc1nc(N2CCOCC2)cc(C)c1C(=O)NCc1ccc(F)cn1 [Example 46, 2-Ethylsulfanyl-N-[(5-fluoro-pyridin-2-yl)-methyl]-4-methyl-6-morpholin-4-yl-pyridine-3-carboxylic acid amide]	
119%	2610 nM	CCSc1nc(N2CCOCC2)cc(C)c1C(=O)NCC(C)(C)C [Example 47, N-(2,2-Dimethyl-propyl)-2-ethylsulfanyl-4-methyl-6-morpholin-4-yl-pyridine-3-carboxylic acid amide]	
143%	1460 nM	CCSc1nc(N2CCC(OC)CC2)cc(C)c1C(=O)NCc1cccc(F)c1 [Example 49, 2-Ethylsulfanyl-N-[(3-fluorophenyl)-methyl]-6-(4-methoxy-piperidin-1-yl)-4-methyl-pyridine-3-carboxylic acid amide]	
-97%	63 nM	CCSc1nc(N2CCOCC2)cc(C)c1C(=O)NCc1ccccc1-c1ccccc1 [Example 50, 2-Ethylsulfanyl-4-methyl-6-morpholin-4-yl-N-[(2-phenyl-phenyl)-methyl]-pyridine-3-carboxylic acid amide]	
-84%	541 nM	CCSc1nc(N2CCOCC2)cc(C)c1C(=O)NCc1ccccc1C(F)(F)F [Example 51, 2-Ethylsulfanyl-4-methyl-6-morpholin-4-yl-N-[[2-(trifluoromethyl)-phenyl]methyl]-pyridine-3-carboxylic acid amide]	
122%	235 nM	CCSc1nc(N(C)Cc2ccc(F)cc2)cc(C)c1C(=O)NCc1cccc(F)c1 [Example 52, 2-Ethylsulfanyl-N-[(3-fluorophenyl)-methyl]-6-[(4-fluorophenyl)-methyl-methyl-amino]-4-methyl-pyridine-3-carboxylic acid amide]	
191%	248 nM	CCSc1nc(N2CCOCC2)cc(C)c1C(=O)NCCCc1ccccc1 [Example 53, 2-Ethylsulfanyl-4-methyl-6-morpholin-4-yl-N-(3-phenyl-propyl)-pyridine-3-carboxylic acid amide]	
103%	2120 nM	CCSc1nc(N2CCOCC2)cc(C)c1C(=O)NCCc1ccccc1 [Example 54, 2-Ethylsulfanyl-4-methyl-6-morpholin-4-yl-N-phenethyl-pyridine-3-carboxylic acid amide]	
162%	260 nM	CCSc1nc(N2CCOCC2)cc(C)c1C(=O)NCc1ccccc1 [Example 55, N-Benzyl-2-ethylsulfanyl-4-methyl-6-morpholin-4-yl-pyridine-3-carboxylic acid amide]	
167%	77 nM	CCCSc1nc(N2CCOCC2)cc(C)c1C(=O)NCc1cccc(F)c1 [Example 56, N-[(3-Fluorophenyl)-methyl]-4-methyl-6-morpholin-4-yl-2-(propylsulfanyl)-pyridine-3-carboxylic acid amide]	
169%	47 nM	CCCCSc1nc(N2CCOCC2)cc(C)c1C(=O)NCc1cccc(F)c1 [Example 57, 2-(Butylsulfanyl)-N-[(3-fluorophenyl)-methyl]-4-methyl-6-morpholin-4-yl-pyridine-3-carboxylic acid amide]	
173%	2290 nM	CCSc1nc(N2CCOCC2)c(F)c(C)c1C(=O)NCc1cccc(F)c1 [Example 58, 2-Ethylsulfanyl-5-fluoro-N-[(3-fluorophenyl)-methyl]-4-methyl-6-morpholin-4-yl-pyridine-3-carboxylic acid amide]	
128%	70 nM	CCSc1nc(N2CCOCC2)cc(C)c1C(=O)NCc1cccc(C(F)(F)F)c1 [Example 59, 2-Ethylsulfanyl-4-methyl-6-morpholin-4-yl-N-[[3-(trifluoromethyl)phenyl]methyl]-pyridine-3-carboxylic acid amide]	
128%	126 nM	CCSc1nc(N2CCOCC2)cc(C)c1C(=O)NCc1ccc(C(F)(F)F)cc1 [Example 60, 2-Ethylsulfanyl-4-methyl-6-morpholin-4-yl-N-[[4-(trifluoromethyl)-phenyl]methyl]-pyridine-3-carboxylic acid amide]	
110%	528 nM	CCSc1nc(N(C)CC2CCOCC2)cc(C)c1C(=O)NCc1cccc(F)c1 [Example 61, 2-Ethylsulfanyl-N-[(3-fluorophenyl)-methyl]-4-methyl-6-[methyl-(tetrahydro-pyran-4-yl-methyl)-amino]-pyridine-3-carboxylic acid amide]	
164%	47 nM	Cc1cc(N2CCOCC2)nc(SCC(C)C)c1C(=O)NCc1cccc(F)c1 [Example 62, N-[(3-Fluorophenyl)-methyl]-4-methyl-2-(2-methyl-propylsulfanyl)-6-morpholin-4-yl-pyridine-3-carboxylic acid amide]	
157%	585 nM	COCCSc1nc(N2CCOCC2)cc(C)c1C(=O)NCc1cccc(F)c1 [Example 63, N-[(3-Fluorophenyl)-methyl]-2-(2-methoxy-ethylsulfanyl)-4-methyl-6-morpholin-4-yl-pyridine-3-carboxylic acid amide]	
137%	216 nM	CCOc1nc(N2CCOCC2)cc(C)c1C(=O)NCc1ccc(F)cc1 [Example 64, 2-Ethoxy-N-[(4-fluorophenyl)-methyl]-4-methyl-6-morpholin-4-yl-pyridine-3-carboxylic acid amide]	
238%	1060 nM	Cc1cc(N2CCOCC2)nc(N(C)C)c1C(=O)NCc1cccc(F)c1 [Example 65, 2-Dimethylamino-N-[(3-fluorophenyl)-methyl]-4-methyl-6-morpholin-4-yl-pyridine-3-carboxylic acid amide]	
109%	983 nM	CCSc1nc(N2CC(C)OC(C)C2)cc(C)c1C(=O)NCc1cccc(F)c1 (centres unmarked) [Example 66, 6-(2,6-Dimethyl-morpholin-4-yl)-2-ethylsulfanyl-N-[(3-fluorophenyl)-methyl]-4-methyl-pyridine-3-carboxylic acid amide]	
134%	7370 nM	CCSc1nc(N2CCOCC2)cc(C)c1C(=O)NCCC1CCCCO1 (centres unmarked) [Example 68, 2-Ethylsulfanyl-4-methyl-6-morpholin-4-yl-N-(2-tetrahydro-pyran-2-yl-ethyl)-pyridine-3-carboxylic acid amide]	
160%	4480 nM	CCSc1nc(N2CCOCC2)cc(C)c1C(=O)NCC1CCCCO1 (centres unmarked) [Example 69, 2-Ethylsulfanyl-4-methyl-6-morpholin-4-yl-N-(tetrahydro-pyran-2-yl-methyl)-pyridine-3-carboxylic acid amide]	
175%	163 nM	CCSc1nc(N2CCC(C)CC2)cc(C)c1C(=O)NCc1cccc(F)c1 [Example 70, 2-Ethylsulfanyl-N-[(3-fluorophenyl)-methyl]-4-methyl-6-(4-methyl-piperidin-1-yl)-pyridine-3-carboxylic acid amide]	
-102%	275 nM	CCSc1nc(N2CCOCC2)cc(C)c1C(=O)NCc1ccccc1-c1ccc(F)cc1 [Example 71, 2-Ethylsulfanyl-N-[[2-(4-fluorophenyl)-phenyl]-methyl]-4-methyl-6-morpholin-4-yl-pyridine-3-carboxylic acid amide]	

Compound	Emax [1]	EC50 [2]	Emax (CHO-K1, read-out: Fluorimetry % efficacy (retigabine = 100%))
CCOC(=O)CN(C)c1cc(C)c(C(=O)NCc2cccc(F)c2)c(SCC)n1 [Example 72]		2080 nM	93%
